Assay results published in patent US10123861B2, “Bag for packaging diluted animal semen suitable for artificial insemination, in particular of porcine species; and system comprising same” (IMV TECHNOLOGIES, priority 2014, dated 2018).

Assay: Amount of triclosan released from the bag into the dilution extender (LC-MS-MS)
Format: physicochemical
Details: bag of Example 3; for Amount of triclosan released into the dose / Proportion of triclosan released into the dose: five days, 17° C.; for Amount of triclosan released into the dose: full dose 70 ml; for Proportion of triclosan released into the dose: relative to approximately 532 μg in parts facing the pouch
Text: A description will now be given of the trials with the bag of Example 3 to determine the amount of triclosan released into the dose of diluted semen such as 27 contained in the pouch such as 14 of that bag.
To simplify the trials, it was not a dose of diluted semen which was preserved in the bag but only dilution extender.
In this case, the dilution extender 53 (hereinafter “extender A”) and a conventional dilution extender containing an antibiotic (hereinafter “extender B”) were used.
One bag of Example 3 is filled with a dose of extender A and one bag of Example 3 with a dose of extender B.
Next the bags are left to rest for five days in the usual preservation conditions, that is to say 17° C. in horizontal position.
Next, the extender contained in each bag is analyzed, in order to determine the concentration of triclosan.
This analysis is made by liquid chromatography tandem mass spectrometry (LC-MS-MS method).
Based on the concentrations obtained, the amount of triclosan released is determined in a full dose provided to be contained in the bag, that is to say 70 ml.
It will be noted that the weight of triclosan taken into account in the sheets such as 11 and 12 of the bag of Example 3 for calculating the proportion released is not the weight of triclosan in the entirety of these sheets, but only in the parts facing the pouch such as 14. Here, these parts weigh approximately 1.835 g (determined after cutting out and weighing). As there are 29 mg of triclosan for 100 g of sheet. The amount of triclosan contained in these parts is approximately 532 μg.

[1] = Extender A (without antibiotic)
[2] = Extender B (containing an antibiotic)

Question: For `Oc1cc(Cl)ccc1Oc1ccc(Cl)cc1Cl` [triclosan], which “Amount of triclosan released into the dose” value [1] is on record?
Answer: 2.7 µg

Question: And the “Proportion of triclosan released into the dose” value [1]?
Answer: 0.5%

Question: And the “Amount of triclosan released into the dose” value [2]?
Answer: 1.9 µg

Question: What about the “Proportion of triclosan released into the dose” value [2] of the same molecule?
Answer: 0.35%

Question: And the “amounts released into the dilution extenders” value (comment on the release results)?
Answer: around 1%
